Laboratory results reported in ChEMBL document CHEMBL3739329, “Synthesis and biological evaluation of nitric oxide-releasing hybrids from gemcitabine and phenylsulfonyl furoxans as anti-tumor agents” (Medchemcomm, 2015).
The source made the active and inactive calls. No cut-off for these calls is given here.

Key:
[1] = Cytotoxicity against human SW620 cells assessed as inhibition of cell proliferation after 48 hrs by MTT assay; assay type: functional, cell-based; settings: SW-620, 48 h
[2] = Cytotoxicity against human SGC7901 cells assessed as inhibition of cell proliferation after 48 hrs by MTT assay; assay type: functional, cell-based; settings: SGC-7901, 48 h
[3] = Cytotoxicity against human HCT116 cells assessed as inhibition of cell proliferation after 48 hrs by MTT assay; assay type: functional, cell-based; settings: HCT-116, 48 h
A549 = test: Cytotoxicity against human A549 cells assessed as inhibition of cell proliferation after 48 hrs by MTT assay; assay type: functional, cell-based; settings: A549, 48 h
HepG2 [4] = test: Cytotoxicity against human HepG2 cells assessed as inhibition of cell proliferation after 48 hrs by MTT assay; assay type: functional, cell-based; settings: HepG2, 48 h
SW-620 [5] = test: Induction of nitrite/nitrate production in human SW620 cells at 100 uM incubated for 24 hrs by Griess assay; assay type: functional, cell-based
HepG2 [6] = test: Induction of NO production in human HepG2 cells at 100 uM incubated for 24 hrs by Griess assay; assay type: functional, cell-based
HCT-116 [7] = test: Induction of NO production in human HCT116 cells at 100 uM incubated for 24 hrs by Griess assay; assay type: functional, cell-based
SW-620 [8] = test: Induction of nitric oxide release in human SW620 cells at 6 uM incubated for 24 hrs by DAF-FM DA staining-based flow cytometric analysis; assay type: functional, cell-based
HepG2 [9] = test: Induction of nitric oxide release in human HepG2 cells at 6 uM incubated for 24 hrs by DAF-FM DA staining-based flow cytometric analysis; assay type: functional, cell-based
HCT-116 [10] = test: Induction of nitric oxide release in human HCT116 cells at 6 uM incubated for 24 hrs by DAF-FM DA staining-based flow cytometric analysis; assay type: functional, cell-based
HepG2 [11] = test: Induction of apoptosis in human HepG2 cells assessed as reduction in PARP-1 protein level at 2 uM incubated for 48 hrs by Western blot analysis; assay type: functional, cell-based
HepG2 [12] = test: Cytotoxicity against human HepG2 cells assessed as inhibition of cell proliferation at 0.5 to 50 uM after 48 hrs in presence of dipyridamole by MTT assay; assay type: functional, cell-based
HepG2 [13] = test: Induction of apoptosis in human HepG2 cells at 2 uM incubated for 48 hrs by FITC-Annexin V/PI staining-based flow cytometric analysis; assay type: functional
[14] = Cytotoxicity against human LO2 cells assessed as inhibition of cell proliferation after 48 hrs by MTT assay; assay type: cell-based; settings: l02, 48 h
HepG2 [15] = test: Induction of apoptosis in human HepG2 cells assessed as reduction in Bcl-2 protein level incubated for 48 hrs by Western blot analysis; assay type: functional, cell-based
HCT-116 [16] = test: Induction of nitric oxide release in human HCT116 cells incubated for 24 hrs by DAF-FM DA staining-based flow cytometric analysis; assay type: functional, cell-based
HepG2 [17] = test: Induction of nitric oxide release in human HepG2 cells incubated for 24 hrs by DAF-FM DA staining-based flow cytometric analysis; assay type: functional, cell-based
HepG2 [18] = test: Induction of apoptosis in human HepG2 cells assessed as reduction in PARP-1 protein level at 0.5 to 2 uM incubated for 48 hrs by Western blot analysis; assay type: functional, cell-based
HepG2 [19] = test: Induction of apoptosis in human HepG2 cells incubated for 48 hrs by FITC-Annexin V/PI staining-based flow cytometric analysis; assay type: functional, cell-based
SW-620 [20] = test: Induction of nitric oxide release in human SW620 cells incubated for 24 hrs by DAF-FM DA staining-based flow cytometric analysis; assay type: functional, cell-based
HepG2 [21] = test: Induction of apoptosis in human HepG2 cells assessed as increase in Bax protein level incubated for 48 hrs by Western blot analysis; assay type: functional, cell-based
HepG2 [22] = test: Cytotoxicity against human HepG2 cells assessed as inhibition of cell proliferation at 2 to 4 uM after 48 hrs in presence of haemoglobin; assay type: functional, cell-based
HepG2 [23] = test: Induction of apoptosis in human HepG2 cells assessed as increase in activated caspase-3 protein level at 0.5 to 2 uM incubated for 48 hrs by Western blot analysis; assay type: functional, cell-based

With O=C(CCC(=O)OCCCCCOc1no[n+]([O-])c1S(=O)(=O)c1ccccc1)Nc1ccn([C@@H]2O[C@H](CO)[C@@H](O)C2(F)F)c(=O)n1 the IC50 [1] was 9.67 µM, the IC50 [2] was 10.5 µM and the IC50 [3] was 11.3 µM. The IC50 (A549) was > 12.5 µM and the IC50 (HepG2 [4]) was > 12.5 µM.
With O=C(CCC(=O)Nc1ccn([C@@H]2O[C@H](CO)[C@@H](O)C2(F)F)c(=O)n1)NCCCCCOc1no[n+]([O-])c1S(=O)(=O)c1ccccc1 the IC50 [1] was > 12.5 µM, the IC50 [2] was 11.8 µM and the IC50 [3] was > 12.5 µM. The IC50 (A549) was > 12.5 µM and the IC50 (HepG2 [4]) was 10.7 µM.
CC(CCOC(=O)CCC(=O)Nc1ccn([C@@H]2O[C@H](CO)[C@@H](O)C2(F)F)c(=O)n1)Oc1no[n+]([O-])c1S(=O)(=O)c1ccccc1 (stereo partly drawn) gave an IC50 [1] of 3.98 µM, an IC50 [2] of 7.44 µM and an IC50 [3] of 4.69 µM. For the same compound, the Activity (SW-620 [5]) was “Active”, the Activity (HepG2 [6]) was “Active” and the IC50 (A549) was 7.82 µM. The Activity (HCT-116 [7]) was “Active” and the IC50 (HepG2 [4]) was 3.25 µM.
With CCOC(=O)N1CCN(/[N+]([O-])=N/Oc2ccc([N+](=O)[O-])cc2[N+](=O)[O-])CC1 the IC50 [1] was 5.16 µM, the Activity (SW-620 [8]) was “Active” and the IC50 [3] was 3.75 µM. For the same compound, the Activity (HepG2 [9]) was “Active”, the IC50 (HepG2 [4]) was 7.42 µM and the Activity (HCT-116 [10]) was “Active”.
In the case of O=C(CCC(=O)Oc1ccc(CCOc2no[n+]([O-])c2S(=O)(=O)c2ccccc2)cc1)Nc1ccn([C@@H]2O[C@H](CO)[C@@H](O)C2(F)F)c(=O)n1, the IC50 [1] is reported as > 12.5 µM, the IC50 [2] is reported as > 12.5 µM and the IC50 [3] is reported as 8.78 µM. The IC50 (A549) was > 12.5 µM and the IC50 (HepG2 [4]) was 9.21 µM.
Work on O=C(CCC(=O)OCCCCOc1no[n+]([O-])c1S(=O)(=O)c1ccccc1)Nc1ccn([C@@H]2O[C@H](CO)[C@@H](O)C2(F)F)c(=O)n1 yielded an IC50 [1] of 2.49 µM, an IC50 [2] of 6.13 µM and an IC50 [3] of 3.57 µM. The Activity (SW-620 [5]) was “Active”, the Activity (HepG2 [6]) was “Active” and the IC50 (A549) was 5.18 µM. The Activity (HCT-116 [7]) was “Active” and the IC50 (HepG2 [4]) was 2.44 µM.
Work on CN(CCOc1no[n+]([O-])c1S(=O)(=O)c1ccccc1)C(=O)CCC(=O)Nc1ccn([C@@H]2O[C@H](CO)[C@@H](O)C2(F)F)c(=O)n1 yielded an IC50 [1] of 5.21 µM, an IC50 [2] of 5.85 µM and an IC50 [3] of 10.8 µM. It also gave an IC50 (A549) of 10.1 µM and an IC50 (HepG2 [4]) of 8.39 µM.
In the case of O=C(CCC(=O)Nc1ccn([C@@H]2O[C@H](CO)[C@@H](O)C2(F)F)c(=O)n1)NCCCOc1no[n+]([O-])c1S(=O)(=O)c1ccccc1, the IC50 [1] is reported as 4.97 µM, the IC50 [2] is reported as 6.71 µM and the IC50 [3] is reported as 4.1 µM. The Activity (SW-620 [5]) was “Active”, the Activity (HepG2 [6]) was “Active” and the IC50 (A549) was 8.9 µM. The Activity (HCT-116 [7]) was “Active” and the IC50 (HepG2 [4]) was 6.18 µM.
O=C(O)CCC(=O)OCC#CCOc1no[n+]([O-])c1S(=O)(=O)c1ccccc1 gave an IC50 [1] of 9.09 µM, an IC50 [2] of 11.5 µM and an IC50 [3] of 9.86 µM. For the same compound, the IC50 (A549) was > 12.5 µM and the IC50 (HepG2 [4]) was 8.73 µM.
In the case of Nc1ccn([C@@H]2O[C@H](CO)[C@@H](O)C2(F)F)c(=O)n1 [GEMCITABINE], the Activity (HepG2 [11]) is reported as “Active”, the IC50 [1] is reported as 5.62 µM and the IC50 [2] is reported as 3.58 µM. For the same compound, the IC50 [3] was 7.33 µM, the Activity (SW-620 [5]) was “inactive” and the Activity (HepG2 [12]) was “inactive”. For the same compound, the Activity (HepG2 [6]) was “inactive”, the IC50 (A549) was 2.69 µM and the Activity (HepG2 [13]) was “Active”. For the same compound, the Activity (HCT-116 [7]) was “inactive” and the IC50 (HepG2 [4]) was 2.97 µM.
With O=C(CCC(=O)OCCOc1no[n+]([O-])c1S(=O)(=O)c1ccccc1)Nc1ccn([C@@H]2O[C@H](CO)[C@@H](O)C2(F)F)c(=O)n1 the IC50 [1] was > 12.5 µM, the IC50 [2] was > 12.5 µM and the IC50 [3] was 10.3 µM. For the same compound, the IC50 (A549) was > 12.5 µM and the IC50 (HepG2 [4]) was > 12.5 µM.
With O=C(CCC(=O)Nc1ccn([C@@H]2O[C@H](CO)[C@@H](O)C2(F)F)c(=O)n1)NCCCCOc1no[n+]([O-])c1S(=O)(=O)c1ccccc1 the IC50 [1] was 4.35 µM, the IC50 [2] was 5.1 µM and the IC50 [3] was 3.06 µM. The Activity (SW-620 [5]) was “Active”, the Activity (HepG2 [6]) was “Active” and the IC50 (A549) was 6.04 µM. The Activity (HCT-116 [7]) was “Active” and the IC50 (HepG2 [4]) was 3.22 µM.
With O=C(CCC(=O)OCCCOc1no[n+]([O-])c1S(=O)(=O)c1ccccc1)Nc1ccn([C@@H]2O[C@H](CO)[C@@H](O)C2(F)F)c(=O)n1 the IC50 [1] was 5 µM, the IC50 [2] was 9.26 µM and the IC50 [3] was 6.89 µM. For the same compound, the Activity (SW-620 [5]) was “Active”, the Activity (HepG2 [6]) was “Active” and the IC50 (A549) was 9.92 µM. The Activity (HCT-116 [7]) was “Active” and the IC50 (HepG2 [4]) was 5.32 µM.
In the case of O=C(CCC(=O)OCC#CCOc1no[n+]([O-])c1S(=O)(=O)c1ccccc1)Nc1ccn([C@@H]2O[C@H](CO)[C@@H](O)C2(F)F)c(=O)n1, the Activity [14] is reported as “Non-toxic”, the Activity (HepG2 [11]) is reported as “Active” and the Activity (HepG2 [15]) is reported as “Dose-dependent effect”. For the same compound, the Activity (HCT-116 [16]) was “Dose-dependent effect”, the IC50 [1] was 1.3 µM and the Activity (HepG2 [17]) was “Dose-dependent effect”. For the same compound, the IC50 [2] was 1.36 µM, the Activity (HepG2 [18]) was “Active” and the Activity (HepG2 [19]) was “Active”. The Activity (SW-620 [20]) was “Dose-dependent effect”, the Activity (HepG2 [21]) was “Dose-dependent effect” and the Activity (HepG2 [22]) was “inactive”. For the same compound, the IC50 [3] was 1.19 µM, the Activity (SW-620 [5]) was “Active” and the Activity (HepG2 [12]) was “Active”. The Activity (HepG2 [6]) was “Active”, the IC50 (A549) was 3.27 µM and the Activity (HepG2 [13]) was 78.3%. The Activity (HCT-116 [7]) was “Active”, the IC50 (HepG2 [4]) was 1.02 µM and the Activity (HepG2 [23]) was “Active”.
In the case of O=C(CCC(=O)OCCOCCOc1no[n+]([O-])c1S(=O)(=O)c1ccccc1)Nc1ccn([C@@H]2O[C@H](CO)[C@@H](O)C2(F)F)c(=O)n1, the IC50 [1] is reported as > 12.5 µM, the IC50 [2] is reported as 10.7 µM and the IC50 [3] is reported as 7.86 µM. The IC50 (A549) was 11.5 µM and the IC50 (HepG2 [4]) was 7.05 µM.
In the case of O=C(CCC(=O)Nc1ccn([C@@H]2O[C@H](CO)[C@@H](O)C2(F)F)c(=O)n1)NCCOc1no[n+]([O-])c1S(=O)(=O)c1ccccc1, the IC50 [1] is reported as 9.16 µM, the IC50 [2] is reported as 9.92 µM and the IC50 [3] is reported as > 12.5 µM. For the same compound, the IC50 (A549) was > 12.5 µM and the IC50 (HepG2 [4]) was 10.5 µM.
